Data reported in US10201558B2, “Compositions of selenoorganic compounds and methods of use thereof” (Alltech, Inc., priority 2014, dated 2019).
Entries after “also recorded” stand apart in the source; their conditions may differ.

Key:
Neprilysin = test: Western blot of Neprilysin in APP/PS1 mouse brains; format: in vivo; settings: APP/PS1 mice, Compound C diet vs control diet
Procedure: (§1) Male APPΔNLh/ΔNLh×PS1P246 L/246 L knock-in model mice of Alzheimer's disease (abbreviated APP/PS1) were genotyped using standard primers for human APP (Amyloid Precursor Protein) and human PS1 (PSEN1). These APP/PS1 mice starting at the age of 6 months, were fed either a control diet containing normal levels of selenium (0.3 ppm from plant and inorganic selenium salt sources) or an experimental diet containing Compound C (the control diet to which was added 1 ppm Se from Compound C) for 6 months. […]
(§2) Frozen hemispheres of control- and Compound C-treated APP/PS1 mice were weighed and homogenized in PBS buffer, and then subsequently extracted with RIPA buffer (Sigma) containing complete proteinase and phosphatase inhibitors (Fisher Scientific). Protein levels in the samples were determined by micro-BCA protein analysis according to the manufacturer's protocol. […] Positive signals on the membrane blots were detected using Amersham's enhanced chemiluminescence Western Blotting Prime Detection reagents (GE healthcare Lifescience, Pittsburgh, Pa.). Images of these luminescence signals on the membrane blots were captured using the LI-COR Odyssey Fc Image system (Lincoln, Nebr.). Protein band densities in Western blots were determined using NIH Image J software, and then normalized by Actb levels in each samples to obtain the protein levels.

MAPK11 = test: QRT-PCR of MAPK11 mRNA in control and FOXO4 KD IMR-32 cells; format: cell-based, human; settings: 24 hours
Procedure: (§3) IMR-32 cells were cultured on 12-well plates for 24 hours and then incubated with FOXO4 siRNA lentiviruses (SC-29650V, Santa Cruz) or control siRNA lentiviruses (sc-108080, Santa Cruz) in the presence of Polybrene (5 μg/ml, Santa Cruz) for 24 hours according to the manufacturer's protocol. These lentiviral siRNA-transfected cells were amplified in normal media for 3 days and then incubated with puromycin for 9-14 days to obtain the stable Control KD (stably transfected with the control siRNAs) and FOXO4KD (stably transfected with Foxo4 siRNAs) cells. These control and Foxo4 KD cells were subjected to cell survival, mitochondrial potential and RNA analysis.
(§4) Human IMR-32 cells were seeded on gelatinized 6-well (6.5×10^5 cells/well) or 24-well (1.3×10^5 cells/well) plates. Cells were treated with control (0 ppb) or various compounds for 6 hours or 24 hours. Total RNA from these cells was isolated using Trizol (Invitrogen) according to the manufacturer's protocol, and then incubated with DNase I to remove any potential contaminated genomic DNA. Then RNA samples were subjected to real-time PCR analysis using the Applied-Bioscience's RT kit and predesigned Taqman probes (Invitrogen), as described previously (Lan et al EMBO J 2003). The mRNA levels of UCP1, UCP2, UCP3, SLC25A27 (UCP4), SLC25A14 (UCP5), PSEN1, Nicastrin, GSK3B, MAPK11-14, PPARG, APOE, RCAN1, RCAN1.1, G6PC, INSR, IGF1R and FOXO4 were measured. Three to six samples were analyzed in each treatment group. Data were normalized by Actin B (ACTB) or Glyceraldehyde Phosphate Dehydrogenase (GAPDH) mRNA levels in each sample and are presented as mean±SEM of 3-6 samples.
(§5) Normal control cells and FOXO4KD cells were incubated with two doses of Compound C for 24 hours, and subjected to QRT-PCR analysis of the MAPK11-14 genes. The relative mRNA expression of all four MAPK genes in normal control IMR-32 cells was assessed. […] Data in Compound C-treated control and FOXO4 KD cells were normalized by their levels in control and FOXO4KD cells, respectively. Mean±SEM of indicated number of samples in the bar graphs. […]

[1] = test system: Insulin Degrading Enzyme (IDE); test: Western blot of insulin degrading enzyme in APP/PS1 mouse brains; format: in vivo; settings: APP/PS1 mice, Compound C diet vs control diet
Procedure: as §1, §2

MAPK12 = test: QRT-PCR of MAPK12 mRNA in control and FOXO4 KD IMR-32 cells; format: cell-based, human; settings: 24 hours
Procedure: as §3, §4, §5

[2] = test system: phosphorylated FOXO3 in AML-12 cells; test: Phosphorylated FOXO in AML-12 liver cells; format: cell-based, mouse; settings: 150 ppb, 6 hours and 24 hours
Procedure: Expression of phosphorylated FOXO1/3/4 in a non-neuronal mouse AML-12 liver cell line was examined Tests were performed at the same time and under the same experimental conditions as the human IMR-32 cells.

INSR = test: QRT-PCR of INSR mRNA in IMR-32 cells; format: cell-based, human; settings: 75 ppb and 150 ppb, 24 hours
Procedure: as §4
To examine whether or not Compound C can regulate INSR/IGF1R signaling in IMR-32 cells, QRT-PCR analysis was performed to measure INSR and IGF1R mRNA levels. […] Mean±SEM, n=4. The * refers to a p value <0.05 when compared to the control group (0 ppb).

[3] = test system: Zic1-5, Foxp2, Drd1a, Tac1, Sez6, Penk, Dlx5, Rarb, Meis2, Ddx5, Gpr88, Pde10a, Akap5, Isl1; test: QRT-PCR of Zic genes and brain development/neuronal function genes in APP/PS1 mouse brains; format: in vivo; settings: Compound C diet vs control diet
Procedure: as §1
Approximately 10 mg brain sample was homogenized with a Qiagen TissueRuptor (Qiagen, Valencia, Calif.) and total RNA was extracted using an RNeasy Mini kit (Qiagen), following the protocol recommended by the company. […] Integrity and purity of isolated RNA was assessed using a NanoDrop ND-1000 spectrophotometer (Thermo Scientific, Wilmington, Del.) and further confirmed with an Agilent 2100 Bioanalyzer System (Agilent Technologies, Santa Clara, Calif.).
RNA samples were subjected to real-time PCR analysis using the Applied-Bioscience's RT kit and predesigned Taqman probes (Invitrogen), as described previously (Lan et al EMBO J 2003). Three to six samples were analyzed in each group. […]

[4] = FOXO4KD cells, 75 ppb and 150 ppb

Question: How did the “Neprilysin protein levels in the brains” value (Neprilysin) turn out when `C[Se]C[C@H]1O[C@@H](n2cnc3c(N)ncnc32)C(O)C1O` (stereo in doubt) [Compound C, 5′-deoxy-5′-methylselenoadenosine] was run?
Answer: Its value is “increased; also recorded: elevated”.

Question: What about the “MAPK11 mRNA levels” value (MAPK11; [4]) of the same compound?
Answer: Its value is “none of the mRNA levels of the four MAPK genes in FOXO4KD cells were significantly altered”.

Question: What about the “MAPK11 mRNA levels” value (MAPK11; control KD cells, 75 ppb) of the same compound?
Answer: The value was “significant decrease”.

Question: And the “MAPK11 mRNA levels” value (MAPK11; control KD cells, 150 ppb)?
Answer: Its value is “significantly decreased”.

Question: What about the “IDE protein levels in the brains” value [1] of the same compound?
Answer: The value was “increased; also recorded: elevated”.

Question: What about the “MAPK12 mRNA levels” value (MAPK12; [4]) of the same compound?
Answer: The value was “none of the mRNA levels of the four MAPK genes in FOXO4KD cells were significantly altered”.

Question: And the “MAPK12 mRNA levels” value (MAPK12; control KD cells, 75 ppb)?
Answer: Its value is “significant decrease”.

Question: What about the “MAPK12 mRNA levels” value (MAPK12; control KD cells, 150 ppb) of the same compound?
Answer: The value was “significantly decreased”.

Question: And the “phosphorylation of FOXO3” value [2]?
Answer: The value was “did not affect”.

Question: What about the “INSR mRNA expression levels” value (INSR) of the same compound?
Answer: Its value is “downregulated”.

Question: And the “expression of Foxp2, Drd1a, Tac1, Sez6, Penk, Dlx5, Rarb, Meis, Ddx5, Gpr88, Pde10a, Isl1 and Akap5 by QRT-PCR” value [3]?
Answer: The value was “significantly elevated”.

Question: What about the “expression of Zic1, Zic2, Zic3, Zic4 and Zic5 by QRT-PCR” value [3] of the same compound?
Answer: Its value is “significantly elevated”.
